We go through 1 compound from patent US20240122956A1, “Application of Naringin Combined with Rapamycin in Preparation of Medications for Treating Hyperlipidemia” (AIR FORCE MEDICAL UNIVERSITY, priority 2023, published 2024).

Test [1] deals with THP-1 cells. The test can be described thus: intracellular cholesterol accumulation in THP-1 cells. Format: cell-based. Particulars: naringin 100 μM pre-treatment 1 hour. Here is the method: (§1) Cell Culture and Treatment: THP-1 cells (from American Type Culture Collection, Manassas, Virginia) were cultured in RPMI 1640. They were pre-treated with naringin (Sigma, 91842; 100 μM) for 1 hour, followed by cultivation in serum-free medium containing oxLDL and oxHDL (50 μg/mL) for 3 hours. The culture condition was maintained at 37° C. and with 5% CO2.
Measurement of Intracellular Cholesterol: Intracellular cholesterol was determined using a commercially available intracellular cholesterol assay kit according to the manufacturer's instructions.

A further test concerns oxLDL-NLRP3 complexes. The test is described as follows: formation of oxLDL-NLRP3 complexes in THP-1 cells (fluorescence imaging). Format: cell-based. Particulars: naringin 100 μM pre-treatment 1 hour, oxLDL 50 μg/mL 3 hours. As for the experimental part: as §1
Test [2] has as its system hyperlipidemia model Ldr1−/− (C57BL/6J) mice. The test is described as follows: lipid accumulation / lesions in carotid arteries, aortic roots and liver of hyperlipidemic mice (Oil Red O). The class given is in vivo. Particulars: high-fat diet 16 weeks, naringin 20 mg/kg daily intraperitoneal, RAPA 40 mg/kg in diet. The text has this: To evaluate the synergistic therapeutic effects of naringin and rapamycin on hyperlipidemia mice (FIG. 4), a hyperlipidemia model was established using Ldr1^−/− (C57BL/6J) mice. […] Subsequently, mouse serum, tissues of carotid arteries, liver, and aortic root were collected for analysis. Assessment of Lesions in Carotid Arteries, Aortic Roots, and Liver Tissues: Carotid arteries, hearts, and livers of mice were dissected, fixed overnight with 4% PFA, and carotid arteries were stained with Oil Red O after gently removing adherent (outer membrane) fat and flattening them from the carotid arteries. The stained aortas were placed on anti-fall-off slides, fully unfolded, and images were captured using a high-resolution camera. Hearts and livers were embedded in OCT tissue, and 7-10 μm thick continuous sections were collected. Staining was performed with Oil Red O and hematoxylin and eosin. Stained sections were analyzed using an optical microscope. ImageJ (version 2.10) was used for quantitative analysis of the images. Lesion areas were assessed according to the percentage of Oil Red 0-positive areas in the total sampled area.

Test [3] deals with oxidized low-density lipoprotein (oxLDL). The test can be described thus: drug screening among 200 natural products for neutralizing oxLp: affinity and surface charge, oxLDL. The class given is binding. An excerpt: (§2) This unregulated process of lipid accumulation and inflammatory reaction, induced by oxLp-NLRP3 complexes, accelerates the progression of hyperlipidemia. Considering the role of oxLp-NLRP3 complexes in the progression of hyperlipidemia, a drug screening technique was employed to search for potential compounds among 200 natural products with the aim of neutralizing oxLp. […] Therefore, naringin was selected for further investigation.

Another test deals with oxHDL-NLRP3 complexes. The test is described as follows: formation of oxHDL-NLRP3 complexes in THP-1 cells (fluorescence imaging). Particulars: naringin 100 μM pre-treatment 1 hour, oxHDL 50 μg/mL 3 hours. Format: cell-based. Here is the method:
as §1

Test [4] deals with THP-1 cells. The test is described as follows: IL-1β release in THP-1 cells. The class given is cell-based. Particulars: naringin 100 μM pre-treatment 1 hour. As for the experimental part: as §1
Measurement of IL-1β: IL-1β was measured using a commercially available IL-1β assay kit according to the manufacturer's instructions.

Test [5] relates to oxidized high-density lipoprotein (oxHDL). The test can be described thus: drug screening among 200 natural products for neutralizing oxLp: affinity and surface charge, oxHDL. Format: binding.
Excerpt: as §2

Regarding `C[C@@H]1O[C@@H](O[C@H]2[C@H](Oc3cc(O)c4c(c3)O[C@H](c3ccc(O)cc3)CC4=O)O[C@H](CO)[C@@H](O)[C@@H]2O)[C@H](O)[C@H](O)[C@H]1O` [naringin], in the test on THP-1 cells [1] (oxHDL 50 μg/mL 3 hours), the oxHDL-induced cholesterol accumulation entry is “reduced”. Moreover, in the test with THP-1 cells [1] (oxLDL 50 μg/mL 3 hours), the oxLDL-induced cholesterol accumulation entry is given as “reduced”. In the test on oxLDL-NLRP3 complexes, the “formation of complexes between oxLDL and NLRP3” value is listed as “inhibited the formation of complexes”. In test [2], the “lipid accumulation in the aortic roots” value is “alleviated lipid accumulation”, the “lipid accumulation in the carotid arteries” value was “alleviated lipid accumulation” and the “lipid accumulation in the livers” value is reported as “alleviated lipid accumulation”. For the same compound, the “neutralizing the negative charge on the surface of oxLDL” value in test [3] is on record as “capable of neutralizing the negative charge”. For the same compound, the “affinity for oxLDL” value in test [3] (drug screening) is on record as “high affinity”. The “formation of complexes between oxHDL and NLRP3” value with oxHDL-NLRP3 complexes is “inhibited the formation of complexes”. Moreover, the “oxHDL-induced IL-1β release” value with THP-1 cells [4] (oxHDL 50 μg/mL 3 hours) is “reduced”. In the test on THP-1 cells [4] (oxLDL 50 μg/mL 3 hours), the “oxLDL-induced IL-1β release” value was “reduced”. The “neutralizing the negative charge on the surface of oxHDL” value in test [5] was “capable of neutralizing the negative charge”. For the same compound, the “affinity for oxHDL” value in test [5] (drug screening) was “high affinity”.
